US11090247B2, “Compositions for protecting the skin from heavy metals and formaldehyde” (FNG RESEARCH CO., LTD., priority 2016, dated 2021)

Tests used:
[1] = Removal test of heavy metals of active ingredients (pig skin, ICP-MS): Cu; details: contaminated pig skin
Description: (§1) (1) Preparation of Heavy Metal Contamination Sources and Pig Skin Samples
(§2) A pig was slaughtered, flayed and the bristle was shaved. The pig skin was cut to prepare 5*5 cm size of skin samples respectively.
(§3) The said skin samples were cleanly wiped with wet gauze, and then, added to 50 ml of methanol and extracted by shaking with ultrasonic for 60 min. 50 ml of methanol was further added and mixed. The pig skin samples were removed from the extracted solutions to prepare the test solutions.
(§4) The test solutions were analyzed for heavy metal components using an inductively coupled plasma mass spectrometer (ICP-MS, Xseries™ 2, Thermo Fisher Scientific, UK).

[2] = Formaldehyde removing ability test (GC); details: 2.0% formaldehyde solution; for Area (mAU*min) 30 min: formaldehyde GC area after 30 min; for Area (mAU*min) 30 min / Area (mAU*min) 180 min: 3 molar equivalents, room temperature; for Area (mAU*min) 180 min: formaldehyde GC area after 180 min; for Area (mAU*min) Initial: formaldehyde GC area, initial state, 3 molar equivalents of compound
[3] = Removal test of heavy metals of active ingredients (pig skin, ICP-MS): Cd; details: contaminated pig skin
Description: as §1, §2, §3, §4

human skin = test: Skin irritation test of active ingredient (patch method, CTFA guidelines); assay type: in vivo; design: key to Degree of irritation: 0–0.1 none, 0.11–0.3 weak, 0.31–0.5 moderate, ≥0.51 strong irritation; details: 20 people, patch 24 hours; for Test result(number of subject) (+): (+): Apparent reddening than periphery; for Test result(number of subject) (++): (++): More reddened and swollen than periphery; for Test result(number of subject) (±): (±): slightly reddish than the periphery; for Test result(number of subject) (−): (−): No erythema or particularly no symptoms
Description: A total of 20 people (10 men and 10 women in their 20 s and 30 s) were tested for skin irritation using the patch method according to the guidelines of CTFA (The Cosmetic, Toiletry & Fragrance Association, Inc. Washington, D.C.).
A filter paper disk was placed in an 8 mm diameter, 10 panels of pin chamber.
After 24 hours, the pin chamber was removed, and skin conditions were visually observed.
[Criteria for Skin Irritation]
(−): No erythema or particularly no symptoms; (±): slightly reddish than the periphery; (+): Apparent reddening than periphery; (++): More reddened and swollen than periphery.
[Grade for Skin Irritation]
Degree of irritation 0-0.1: Grade I (unstimulated);
Degree of irritation 0.11-0.3: Grade II (weakly stimulated);
Degree of irritation 0.31-0.5: Grade III (moderately stimulated);
Degree of irritation 0.51 or more: Grade IV (strongly stimulated)

[4] = Removal test of heavy metals of active ingredients (pig skin, ICP-MS): Pb; details: contaminated pig skin
Description: as §1, §2, §3, §4

SMILES	Removal of Heavy metals Cu (%) ([1]; 0.1 wt % aqueous solution)	Removal of Heavy metals Cu (%) ([1]; 0.5 wt % aqueous solution)	Removal of Heavy metals Cu (%) ([1]; 1.0 wt % aqueous solution)	Area (mAU*min) 30 min [2] [mAU*min]	Area (mAU*min) 180 min [2] [mAU*min]	Area (mAU*min) Initial [2] [mAU*min]	Removal of Heavy metals Cd (%) ([3]; 0.1 wt % aqueous solution)	Removal of Heavy metals Cd (%) ([3]; 0.5 wt % aqueous solution)	Removal of Heavy metals Cd (%) ([3]; 1.0 wt % aqueous solution)	Degree of irritation (human skin; 0.1 wt %)	Grade (human skin; 0.1 wt %)	Test result(number of subject) (+) (human skin; 0.1 wt %)	Test result(number of subject) (++) (human skin; 0.1 wt %)	Test result(number of subject) (±) (human skin; 0.1 wt %)	Test result(number of subject) (−) (human skin; 0.1 wt %)	Degree of irritation (human skin; 0.5 wt %)	Grade (human skin; 0.5 wt %)	Test result(number of subject) (+) (human skin; 0.5 wt %)	Test result(number of subject) (++) (human skin; 0.5 wt %)	Test result(number of subject) (±) (human skin; 0.5 wt %)	further results
O=C(O)CN1CCN(CC(=O)O)CCN(CC(=O)O)CCN(CC(=O)O)CC1 [Embodiment 5, 2,2′,2″,2′″-(1,4,7,10-tetraazacyclododecane-1,4,7,10-tetrayl)tetraacetic acid]	94.6	96.8	97.2	0.179	0	0.305	90.4	93.6	93.7	0	I (Degree of irritation 0-0.1: Grade I (unstimulated))	0	0	0	20	0	I (Degree of irritation 0-0.1: Grade I (unstimulated))	0	0	0	Test result(number of subject) (−) (human skin; 0.5 wt %): 20; Degree of irritation (human skin; 1.0 wt %): 0.05; Grade (human skin; 1.0 wt %): I (Degree of irritation 0-0.1: Grade I (unstimulated)); Test result(number of subject) (+) (human skin; 1.0 wt %): 0; Test result(number of subject) (++) (human skin; 1.0 wt %): 0; Test result(number of subject) (±) (human skin; 1.0 wt %): 1; Test result(number of subject) (−) (human skin; 1.0 wt %): 19; Removal of Heavy metals Pb (%) ([4]; 0.1 wt % aqueous solution): 92.4%; Removal of Heavy metals Pb (%) ([4]; 0.5 wt % aqueous solution): 94.7%; Removal of Heavy metals Pb (%) ([4]; 1.0 wt % aqueous solution): 95.1%
O=C(O)c1ccc(N2CCN(c3ccc(C(=O)O)cc3)CCN(c3ccc(C(=O)O)cc3)CCN(c3ccc(C(=O)O)cc3)CC2)cc1 [Embodiment 6, 4,4′,4″,4′″-(1,4,7,10-tetraazacyclododecane-1,4,7,10-tetrayl)tetrabenzoic acid]	94.1	96.3	97.0	0.183	0	0.305	89.2	90.9	91.6	0	I (Degree of irritation 0-0.1: Grade I (unstimulated))	0	0	0	20	0	I (Degree of irritation 0-0.1: Grade I (unstimulated))	0	0	0	Test result(number of subject) (−) (human skin; 0.5 wt %): 20; Degree of irritation (human skin; 1.0 wt %): 0.05; Grade (human skin; 1.0 wt %): I (Degree of irritation 0-0.1: Grade I (unstimulated)); Test result(number of subject) (+) (human skin; 1.0 wt %): 0; Test result(number of subject) (++) (human skin; 1.0 wt %): 0; Test result(number of subject) (±) (human skin; 1.0 wt %): 1; Test result(number of subject) (−) (human skin; 1.0 wt %): 19; Removal of Heavy metals Pb (%) ([4]; 0.1 wt % aqueous solution): 90.2%; Removal of Heavy metals Pb (%) ([4]; 0.5 wt % aqueous solution): 92.8%; Removal of Heavy metals Pb (%) ([4]; 1.0 wt % aqueous solution): 93.2%
O=C(O)c1cncc(N2CCN(c3cncc(C(=O)O)c3)CCN(c3cncc(C(=O)O)c3)CCN(c3cncc(C(=O)O)c3)CC2)c1 [Embodiment 7, 5,5′,5″,5′″-(1,4,7,10-tetraazacyclododecane-1,4,7,10-tetrayl)tetranicotinic acid]	93.8	95.1	96.0	0.181	0	0.305	87.9	89.4	90.7	0	I (Degree of irritation 0-0.1: Grade I (unstimulated))	0	0	0	20	0	I (Degree of irritation 0-0.1: Grade I (unstimulated))	0	0	0	Test result(number of subject) (−) (human skin; 0.5 wt %): 20; Degree of irritation (human skin; 1.0 wt %): 0; Grade (human skin; 1.0 wt %): I (Degree of irritation 0-0.1: Grade I (unstimulated)); Test result(number of subject) (+) (human skin; 1.0 wt %): 0; Test result(number of subject) (++) (human skin; 1.0 wt %): 0; Test result(number of subject) (±) (human skin; 1.0 wt %): 0; Test result(number of subject) (−) (human skin; 1.0 wt %): 20; Removal of Heavy metals Pb (%) ([4]; 0.1 wt % aqueous solution): 90.8%; Removal of Heavy metals Pb (%) ([4]; 0.5 wt % aqueous solution): 93.1%; Removal of Heavy metals Pb (%) ([4]; 1.0 wt % aqueous solution): 93.6%
O=C(O)c1ccc(N2CCN(c3ccc(C(=O)O)o3)CCN(c3ccc(C(=O)O)o3)CCN(c3ccc(C(=O)O)o3)CC2)o1 [Embodiment 8, 5,5′,5″,5′″-(1,4,7,10-tetraazacyclododecane-1,4,7,10-tetrayl)tetrakis(furan-2-carboxylic acid)]	94.3	96.8	97.2	0.168	0	0.305	90.4	91.3	93.4	0	I (Degree of irritation 0-0.1: Grade I (unstimulated))	0	0	0	20	0	I (Degree of irritation 0-0.1: Grade I (unstimulated))	0	0	0	Test result(number of subject) (−) (human skin; 0.5 wt %): 20; Degree of irritation (human skin; 1.0 wt %): 0.10; Grade (human skin; 1.0 wt %): I (Degree of irritation 0-0.1: Grade I (unstimulated)); Test result(number of subject) (+) (human skin; 1.0 wt %): 0; Test result(number of subject) (++) (human skin; 1.0 wt %): 0; Test result(number of subject) (±) (human skin; 1.0 wt %): 2; Test result(number of subject) (−) (human skin; 1.0 wt %): 18; Removal of Heavy metals Pb (%) ([4]; 0.1 wt % aqueous solution): 91.4%; Removal of Heavy metals Pb (%) ([4]; 0.5 wt % aqueous solution): 93.4%; Removal of Heavy metals Pb (%) ([4]; 1.0 wt % aqueous solution): 94.0%
